The record followed here is ChEMBL document CHEMBL5209580, “Flow cytometry transport assay for SLC2A3 using HEK293 JumpIN TRex SLC2A3 WT-OE cells” (2022).

This experiment has as its target T1, Solute carrier family 2, facilitated glucose transporter member 3 (Homo sapiens, UniProt P11169).
T1 sequence (P11169 whole entry): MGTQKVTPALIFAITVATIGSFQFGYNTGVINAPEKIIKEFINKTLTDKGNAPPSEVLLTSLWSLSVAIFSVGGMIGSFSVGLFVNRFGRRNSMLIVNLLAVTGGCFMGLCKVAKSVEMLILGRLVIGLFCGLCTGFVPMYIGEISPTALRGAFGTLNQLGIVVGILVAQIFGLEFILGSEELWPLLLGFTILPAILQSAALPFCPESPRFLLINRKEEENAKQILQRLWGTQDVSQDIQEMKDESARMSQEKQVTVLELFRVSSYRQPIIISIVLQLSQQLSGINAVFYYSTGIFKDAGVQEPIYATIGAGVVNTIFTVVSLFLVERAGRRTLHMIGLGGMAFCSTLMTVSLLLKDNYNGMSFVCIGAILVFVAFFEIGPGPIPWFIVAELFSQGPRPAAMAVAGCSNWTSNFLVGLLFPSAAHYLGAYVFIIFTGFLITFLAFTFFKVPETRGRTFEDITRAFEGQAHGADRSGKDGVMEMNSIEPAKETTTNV
As to the kind of experiment: Inhibition of the Glucose Transporter (GLUT3, SLC2A3) as assessed by a FRET based flow cytometry assay using a genetically-encoded biosensor for measuring free glucose (FLII12Pglu-700uDelta6) in HEK293 JumpIN TRex SLC2A3 WT-OE cells (PubChem AID: 1794827). In kind it is functional, cell-based.

Compound `O=C(Oc1cccc(F)c1OC(=O)c1cccc(O)c1)c1cccc(O)c1` had an IC50 of more than 10 µM.
